Assay results reported in paper PMC11549461, “Stability of immobilized L-arginine deiminase from Penicillium chrysogenum and evaluation of its anticancer activity” (Scientific Reports, 2024).

System: L-arginine deiminase (ADI)
Test: Lineweaver-Burk plot; ammonia release with Nessler's reagent
Type: biochemical, Penicillium chrysogenum
Details: free enzyme; pH and temperature of the kinetic assay not given

`N=C(N)NCCC[C@H](N)C(=O)O` [L-arginine] showed a Km of 760 µM.
